We go through 21 compounds from patent US8633251B2, “Derivatives of aminoalkanols, method of obtaining of aminoalkanols and their use” (Uniwersytet Jagiellonski, priority 2008, dated 2014).

Data set [1] relates to maximal electroshock seizures. Description: Maximum Electroshock Seizure (MES) test, mice. It is filed as in vivo. As to the method: (§1) In order to define anticonvulsant activity, screening tests were performed, using animal models of seizures. […] Each substance (after dissolving in methylcellulose) was normally tested in doses 30, 100, and 300 mg/kg body weight (b.w.) (mice) or in 30 and 50 mg/kg b.w. (rats) in two possible routes of administration: intraperitoneal (i.p.) or oral (p.o.). Appropriate tests were performed 0.5 and 4 h after administration of the compound. […] (mice) the tests were also performed in doses 10 and 3 mg/kg b.w.
Maximum Electroshock Seizure (MES) test is an electric test, verifying activity towards generalized tonic-clonic seizures (grand mal epilepsy). […] Its procedure consists in administration to an animal a mentioned dose, and after 0.5 or 4 h attaching corneal electrodes (after anesthetic eye-drops: 0.5% tetracaine hydrochloride in 0.9% NaCl) and turning on electric current (60 Hz, 0.2 s, 50 mA (mice) or 150 mA (rats)). […] Normally, in the dose 30 mg/kg b.w. the test is done in 1 mouse after 0.5 or 4 h, in the dose 100 mg/kg b.w.—in 3 mice, and in the dose 300 mg/kg b.w.—in 1 mouse.

The subject of data set [2] is neurotoxicity (rotarod). Description: Neurotoxicity test (TOX), rotarod, mice. It is filed as in vivo. As to the method: as §1
It is performed with use of rotarod test. The animal is placed on a plastic rod (1 inch in diameter), rotating 6 rpm. The rod is placed on a level discouraging the animal to jump off. […] Neurotoxicity is stated if the animal cannot stay on the rod for 1 min. in any of 3 trials. Normally the test is performed in dose 30 mg/kg b.w. in 4 mice (0.5 h) and in 2 mice (4 h), in the dose 100 mg/kg b.w. in 8 mice (0.5 h) and in 4 mice (4 h) and in the dose 300 mg/kg b.w. in 4 mice (0.5 h) and 2 mice (4 h).
On the technique in general: The rotarod test checks motor coordination on a turning rod.

The mark [3] stands for this setting: mice, dose 30 mg/kg b.w., time 0.5 h.
[4] abbreviates: mice, dose 100 mg/kg b.w., time 0.5 h.
Where [5] appears, read: mice, dose 300 mg/kg b.w., time 0.5 h.
[6] abbreviates: mice, dose 300 mg/kg b.w., 0.5 h.
Setting [7] is: mice, dose 100 mg/kg b.w., 0.5 h.
Where [8] appears, read: mice, dose 300 mg/kg b.w., time 4 h.
Where [9] appears, read: Mus musculus, 0.5 h, read-out: MES, No. of protected animals/No. of used animals.

Counter-ions that a name gives are not always drawn. Like-named read-outs stand apart in the source and are kept apart here.

Regarding `Cc1cccc(Cl)c1OCCNCC(O)c1ccccc1` (stereo not shown) [Compound 31, R,S-2N-[(2-chlor-6-methylphenoxy)ethyl]amino-1-phenylethanol], the entries for the “MES, No. of protected animals/No. of used animals” value in data set [1] (setting [3]), in data set [1] (setting [4]) and in data set [1] (setting [5]) were 1/1, 3/3 and 1/1, respectively. Besides, the entries for the “TOX, No. of animals exhibiting motor impairment/no. of used animals” value in data set [2] (setting [4]) and in data set [2] (setting [5]) were 8/8 and 4/4, respectively.

Take `Cc1cccc(C)c1OCCNC(C)CO.Cl` (stereo not shown) [Compound 11a, R,S-2N-[(2,6-dimethylphenoxy)ethyl]amino-1-propanol hydrochloride]: the “MES, No. of protected animals/No. of used animals” value in data set [1] (setting [3]) and in data set [1] (setting [4]) was 1/1 throughout. For the same compound, the “TOX, No. of animals exhibiting motor impairment/no. of used animals” value was 3/4 in data set [2] (mouse, in vivo, 30 mg/kg); 8/8 in data set [2] (mouse, in vivo, 100 mg/kg); 4/4 in data set [2] (mouse, in vivo, 300 mg/kg).

In the case of `Cc1cccc(C)c1OCCN[C@@H]1CCCC[C@H]1O` (relative stereo) [Compound 18, D,L-trans-2N-[(2,6-dimethylphenoxy)ethyl]amino-1-cyclohexanol], the “MES, No. of protected animals/No. of used animals” value in data set [1] (setting [4]) was 3/3. Besides, the figures for the “TOX, No. of animals exhibiting motor impairment/no. of used animals” value in data set [2] (setting [4]) and in data set [2] (setting [5]) were 7/8 and 4/4, respectively.

In the case of `Cc1cccc(Cl)c1OCC(=O)NC(C)CO` (stereo not shown) [Compound 69, R,S-2N-[(2-chlor-6-methylphenoxy)acetyl]amino-1-propanol], the “MES, No. of protected animals/No. of used animals” value in data set [1] (setting [6]) is 1/1. Further, the “TOX, No. of animals exhibiting motor impairment/no. of used animals” value is on record as 1/8 in data set [2] (setting [7]) and 1/4 in data set [2] (setting [6]).

Take `Cc1ccc(C)c(OCCNCC(O)c2ccccc2)c1` (stereo not shown) [Compound 9, R,S-2N-[(2,5-dimethylphenoxy)ethyl]amino-1-phenylethanol]: the results for the “TOX, No. of animals exhibiting motor impairment/no. of used animals” value in data set [2] (setting [4]), in data set [2] (setting [5]) and in data set [2] (setting [8]) were 7/8, 3/4 and 1/2, respectively.

For `Cc1cccc(Cl)c1OCCNC(C)(CO)CO` [Compound 29, 2N-[(2-chlor-6-methylphenoxy)ethyl]amino-2-methyl-1,3-propandiol], in data set [1] (setting [4]), the “MES, No. of protected animals/No. of used animals” value is recorded as 2/3. The “TOX, No. of animals exhibiting motor impairment/no. of used animals” value was 4/8 in data set [2] (mouse, in vivo, 100 mg/kg) and 4/4 in data set [2] (mouse, in vivo, 300 mg/kg).

With `Cc1cc(Cl)ccc1OCCNCC(O)c1ccccc1` (stereo not shown) [Compound 37, R,S-2N-[(4-chlor-2-methylphenoxy)ethyl]amino-1-phenylethanol], in data set [2] (setting [5]), the “TOX, No. of animals exhibiting motor impairment/no. of used animals” value is on record as 1/4.

With `Cc1cccc(C)c1OCCCN[C@H](C)CO` [Compound 52, R-(−)-2N-[(2,6-dimethylphenoxy)propyl]amino-1-propanol hydrochloride], in data set [1] (setting [9]), the responders at 30 mg/kg amounted to 100%. Further, the responders at 100 mg/kg in data set [1] (setting [9]) is 66.7%. Also, the responders at 300 mg/kg in data set [1] (Mus musculus, 4 h, read-out: MES, No. of protected animals/No. of used animals) stood at 100%. The “TOX, No. of animals exhibiting motor impairment/no. of used animals” value is 1/4 in data set [2] (mice, dose 10 mg/kg b.w., 0.5 h); 6/8 in data set [2] (setting [7]); 1/4 in data set [2] (mice, dose 100 mg/kg b.w., 4 h); 3/4 in data set [2] (setting [6]).

In the case of `CNC(=O)C(C)NC(=O)COc1c(C)cccc1C` (racemic) [Compound 67, D,L-2N-[(2,6-dimethylphenoxy)acetyl]aminopropionic acid N-methylamide], the responders at 100 mg/kg in data set [1] (Mus musculus, mice, dose 100 mg/kg b.w., 0.5 h, read-out: MES, No. of protected animals/No. of used animals (converted)) is 66.7%. For the same compound, the responders at 300 mg/kg in data set [1] (Mus musculus, mice, dose 300 mg/kg b.w., 0.5 h, read-out: MES, No. of protected animals/No. of used animals) is 100%. Moreover, the “TOX, No. of animals exhibiting motor impairment/no. of used animals” value in data set [2] (setting [7]) is reported as 1/8; in data set [2] (setting [6]) it was 4/4.

`CC[C@@H](CO)NCCOc1cc(C)cc(C)c1C` [Compound 41, S-(+)-2N-[(2,3,5-trimethylphenoxy)ethyl]amino-1-butanol]: the “MES, No. of protected animals/No. of used animals” value in data set [1] (setting [3]) is reported as 1/1; in data set [1] (setting [4]), 3/3. In addition, the “TOX, No. of animals exhibiting motor impairment/no. of used animals” value in data set [2] (mouse, in vivo, 30 mg/kg) is 3/4; in data set [2] (mouse, in vivo, 100 mg/kg) it was 7/8; in data set [2] (mouse, in vivo, 300 mg/kg), 4/4.

Take “R,S-2N-[(4-chlor-2-methylphenoxy)ethyl]amino-1-propanol [Compound 33]”: the “MES, No. of protected animals/No. of used animals” value in data set [1] (setting [4]) was 3/3. Besides, the results for the “TOX, No. of animals exhibiting motor impairment/no. of used animals” value in data set [2] (setting [4]) and in data set [2] (setting [5]) were 4/8 and 4/4, respectively.

`CCC(CO)NCCOc1ccc(Cl)cc1C` (stereo not shown) [Compound 35, R,S-2N-[(4-chlor-2-methylphenoxy)ethyl]amino-1-butanol]: the “MES, No. of protected animals/No. of used animals” value in data set [1] (setting [4]) is given as 3/3. Further, the entries for the “TOX, No. of animals exhibiting motor impairment/no. of used animals” value in data set [2] (setting [4]) and in data set [2] (setting [5]) were 8/8 and 4/4, respectively.

`Cc1cc(Cl)ccc1OCCNC(C)(C)CO` [Compound 36, 2N-[(4-chlor-2-methylphenoxy)ethyl]amino-2-methyl-1-propanol]: the “MES, No. of protected animals/No. of used animals” value in data set [1] (setting [4]) is on record as 3/3. The “TOX, No. of animals exhibiting motor impairment/no. of used animals” value in data set [2] (setting [5]) is 4/4.

As for “R,S-1N-[(4-chlor-2-methylphenoxy)ethyl]amino-2-propanol [Compound 32]”, the “MES, No. of protected animals/No. of used animals” value in data set [1] (setting [3]) was 1/1; in data set [1] (setting [4]), 3/3; in data set [1] (mice, dose 100 mg/kg b.w., time 4 h), 1/3; in data set [1] (setting [5]) it was 1/1. Also, the “TOX, No. of animals exhibiting motor impairment/no. of used animals” value is listed as 7/8 in data set [2] (setting [4]), 4/4 in data set [2] (setting [5]) and 1/1 in data set [2] (setting [8]).

In the case of `CCC(O)CNCCOc1c(C)cccc1Cl` (stereo not shown) [Compound 25, R,S-1N-[(2-chlor-6-methylphenoxy)ethyl]amino-2-butanol], the “MES, No. of protected animals/No. of used animals” value in data set [1] (setting [3]) was 1/1. For the same compound, the “TOX, No. of animals exhibiting motor impairment/no. of used animals” value in data set [2] (setting [4]) is recorded as 8/8; in data set [2] (setting [5]) it was 4/4.

For the compound `Cc1cccc(Cl)c1OCCCNC(C)CO` (racemic) [Compound 57, R,S-2N-[(2-chlor-6-methylphenoxy)propyl]amino-1-propanol], the “TOX, No. of animals exhibiting motor impairment/no. of used animals” value in data set [2] (mice, dose 30 mg/kg b.w., 0.5 h) is recorded as 4/4; in data set [2] (mice, dose 30 mg/kg b.w., 4 h), 1/2; in data set [2] (setting [7]) it was 8/8; in data set [2] (setting [6]), 4/4.

On to `Cc1cccc(OCCNC(C)(C)CO)c1C` [Compound 3, 2N-[(2,3-dimethylphenoxy)ethyl]amino-2-methyl-1-propanol], for which the responders at 100 mg/kg in data set [1] (Mus musculus, mice, dose 100 mg/kg b.w., time 0.5 h, read-out: MES, No. of protected animals/No. of used animals (converted)) is 66.7%. In addition, the “TOX, No. of animals exhibiting motor impairment/no. of used animals” value in data set [2] (setting [4]) was 7/8; in data set [2] (setting [5]), 4/4.

Consider `Cc1cc(C)c(OCC(=O)NCC(O)c2ccccc2)c(C)c1` (stereo not shown) [Compound 83, R,S-2N-[(2,4,6-trimethylphenoxy)acetyl]amino-1-phenylethanol], for which the “TOX, No. of animals exhibiting motor impairment/no. of used animals” value in data set [2] (setting [6]) is 4/4.

As for `Cc1cc(Cl)ccc1OCC(=O)NCC(O)c1ccccc1` (stereo not shown) [Compound 82, R,S-2N-[(4-chlor-2-methylphenoxy)acetyl]amino-1-phenylethanol], the “TOX, No. of animals exhibiting motor impairment/no. of used animals” value is 2/8 in data set [2] (setting [7]); 4/4 in data set [2] (setting [6]); 1/2 in data set [2] (mice, dose 300 mg/kg b.w., 4 h).

For the compound `Cc1cccc(Cl)c1OCC(=O)NCCCC(=O)O` [Compound 79, 4N-[(2-chlor-6-methylphenoxy)acetyl]aminobutyric acid], in data set [2] (setting [6]), the “TOX, No. of animals exhibiting motor impairment/no. of used animals” value is 1/4.

For `CCC(NC(=O)COc1c(C)cccc1Cl)C(N)=O` (racemic) [Compound 78, D,L-2N-[(2-chlor-6-methylphenoxy)acetyl]aminobutyramide], the “TOX, No. of animals exhibiting motor impairment/no. of used animals” value in data set [2] (setting [6]) was 1/4.
